Values of other authors in publication PMC4546328, “Effects of Inhibiting Dipeptidyl Peptidase-4 (DPP4) in Cows with Subclinical Ketosis” (PLoS ONE, 2015).

Set-up: method as in earlier work
Details: prescribing information; primarily small increase of neutrophil granulocytes counts

Structure (SMILES): N[C@@H](CC(=O)N1CCn2c(nnc2C(F)(F)F)C1)Cc1cc(F)c(F)cc1F [sitagliptin]
- effect on WBC: slight increase in WBC
